Results on nine molecules are retold here after patent US20260356819A1, “OXOISOINDOLINYL-SUBSTITUTED […] DERIVATIVE AND USE THEREOF” (GLUETACS THERAPEUTICS (SHANGHAI) CO., LTD., priority 2023, published 2026).

Each structure is given as a SMILES string.

Holding throughout (format): cell-based
Conditions in all cases: compounds at 50 nM and 500 nM

For one assay, the target named is T1, IKZF1 (Homo sapiens, UniProt Q13422+Q96SW2).
T1 construct: The supernatant was aspirated as the extracted total cell protein; endogenous in cells; host or cells: human peripheral blood mononuclear cells (hPBMCs)
Put plainly: Western blot degradation of IKZF1 in hPBMCs (24 h). In short, it runs like this: (§1)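 Read-out is Western blot band grayscale, divided by internal control band and normalised to give percent target protein remaining; degradation rate is 1 minus that value. Cells were human PBMCs exposed to compound at 50 nM and 500 nM for 24 hours.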

The target of a further assay is T2, WEE1 (Homo sapiens, UniProt P30291+Q96SW2).
T2 construct: The supernatant was aspirated as the extracted total cell protein; endogenous in cells; host or cells: human peripheral blood mononuclear cells (hPBMCs)
The assay is described as follows: Western blot degradation of WEE1 in hPBMCs (24 h). Here is the method: Conventional Western blot assay was performed to evaluate the effects of the compounds of the present disclosure on the expression of target proteins in cells. • (1) Cell Seeding and Protein Harvesting: Human peripheral blood mononuclear cells (hPBMCs) at a density of 1×10^6 cells/mL were thawed according to the PBMC Recovery Protocol (Milecell Biotechnologies Inc, Shanghai). The cells were then treated with the compounds of the present disclosure (including the compounds listed in Table 1, and the Examples 1-498 compounds) at concentrations of 50 nM and 500 nM. Controls included a negative control (DMSO) and a positive control (the commercial immunomodulatory drug lenalidomide), both processed following the identical experimental protocol as the compounds of the present disclosure. After 24 hours of compounds treatment, cells were harvested and lysed in RIPA protein lysate containing protease inhibitors on ice for 30 min, followed by centrifugation. The supernatant was aspirated as the extracted total cell protein. The protein concentration of the supernatant was determined using the conventional BCA (Bicinchoninic Acid) assay. • (2) To the collected supernatant, 5×SDS sample loading buffer was added, followed by denaturation at 95 °C for 5 minutes. The denatured samples were then separated by SDS-PAGE electrophoresis on a polyacrylamide gel. Proteins were transferred to a nitrocellulose membrane (0.45 μm NC membrane), blocked with blocking buffer at room temperature for 1 hour, and subjected to antibody incubation and development procedures according to the antibody manufacturer's instructions (Cell Signaling Technology).
Half-Maximal Degradation Concentration value (the drug concentration required for degrading proteins by 50%, abbreviated as DC50) reads method: comparing the grayscale values of Western blot bands from drug-treated samples with those from blank DMSO-treated controls, and identifying the drug concentration range at which the grayscale value is half that of the DMSO-treated control bands.
DC50 values can be calculated using ImageJ software to measure grayscale values of Western blot bands from drug-treated samples. The concentration-response curve is fitted to estimate the drug concentration corresponding to half the grayscale value.
Target protein remaining (%) refers to the percentage of target protein remaining in cells after treatment with protein degrader compounds.
Calculation method for target protein remaining (%): Use ImageJ software to measure grayscale values of Western blot bands from drug (protein degrader)-treated samples. The grayscale value of drug-treated bands is divided by that of internal control protein bands, and the resulting quotient is normalized to obtain the relative percentage of remaining target protein after protein degrader treatment.
Target protein degradation rate (%)=1−target protein remaining (%).

For another assay, the target named is T3, IKZF2 (Homo sapiens, UniProt Q96SW2+Q9UKS7).
T3 construct: The supernatant was aspirated as the extracted total cell protein; endogenous in cells; host or cells: human peripheral blood mononuclear cells (hPBMCs)
The assay is described as follows: Western blot degradation of IKZF2 in hPBMCs (24 h). In short, it runs like this: as §1

Another assay concerns the target T4, GSPT1 (Homo sapiens, UniProt P15170+Q96SW2).
T4 construct: The supernatant was aspirated as the extracted total cell protein; endogenous in cells; host or cells: human peripheral blood mononuclear cells (hPBMCs)
The assay is described as follows: Western blot degradation of GSPT1 in hPBMCs (24 h). The essentials:
as §1

The next assay addresses T5, CK1α (Homo sapiens, UniProt P48729+Q96SW2).
T5 construct: The supernatant was aspirated as the extracted total cell protein; endogenous in cells; host or cells: human peripheral blood mononuclear cells (hPBMCs)
The assay is described as follows: Western blot degradation of CK1α in hPBMCs (24 h). In short, it runs like this: as §1

The target in a further assay is T6, IKZF3 (Homo sapiens, UniProt Q96SW2+Q9UKT9).
T6 construct: The supernatant was aspirated as the extracted total cell protein; endogenous in cells; host or cells: human peripheral blood mononuclear cells (hPBMCs)
The assay is described as follows: Western blot degradation of IKZF3 in hPBMCs (24 h). The essentials:
as §1

T2 sequence (P30291 whole entry): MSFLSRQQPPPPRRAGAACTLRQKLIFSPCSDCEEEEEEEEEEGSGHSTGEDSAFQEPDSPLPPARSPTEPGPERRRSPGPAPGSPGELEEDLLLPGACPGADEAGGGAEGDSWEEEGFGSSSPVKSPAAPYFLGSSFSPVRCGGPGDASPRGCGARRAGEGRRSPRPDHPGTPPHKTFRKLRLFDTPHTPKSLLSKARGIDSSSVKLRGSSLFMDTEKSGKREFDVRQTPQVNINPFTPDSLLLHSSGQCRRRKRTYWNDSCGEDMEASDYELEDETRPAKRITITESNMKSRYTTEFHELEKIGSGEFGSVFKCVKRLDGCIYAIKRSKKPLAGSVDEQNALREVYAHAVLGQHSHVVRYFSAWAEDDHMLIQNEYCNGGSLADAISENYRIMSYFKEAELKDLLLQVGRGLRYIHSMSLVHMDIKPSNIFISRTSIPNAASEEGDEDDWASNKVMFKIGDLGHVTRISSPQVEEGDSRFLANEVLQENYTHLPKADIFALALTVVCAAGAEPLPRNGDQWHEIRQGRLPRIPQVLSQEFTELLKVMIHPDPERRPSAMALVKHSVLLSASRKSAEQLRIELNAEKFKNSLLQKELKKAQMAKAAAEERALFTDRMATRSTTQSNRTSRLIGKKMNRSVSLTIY
T2 sequence (Q96SW2 whole entry): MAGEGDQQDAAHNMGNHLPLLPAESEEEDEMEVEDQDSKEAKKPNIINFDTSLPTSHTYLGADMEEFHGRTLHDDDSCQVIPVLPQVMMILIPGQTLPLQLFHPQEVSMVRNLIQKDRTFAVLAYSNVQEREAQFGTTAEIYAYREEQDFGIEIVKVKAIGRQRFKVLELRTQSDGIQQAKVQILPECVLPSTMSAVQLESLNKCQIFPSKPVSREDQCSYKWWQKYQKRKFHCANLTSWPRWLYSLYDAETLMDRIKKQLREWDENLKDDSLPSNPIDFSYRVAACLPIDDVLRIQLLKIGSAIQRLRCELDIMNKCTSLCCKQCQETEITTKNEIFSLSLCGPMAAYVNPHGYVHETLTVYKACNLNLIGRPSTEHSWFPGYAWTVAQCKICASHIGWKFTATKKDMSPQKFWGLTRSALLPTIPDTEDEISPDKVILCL
T2 sequence (Q16531 whole entry partner): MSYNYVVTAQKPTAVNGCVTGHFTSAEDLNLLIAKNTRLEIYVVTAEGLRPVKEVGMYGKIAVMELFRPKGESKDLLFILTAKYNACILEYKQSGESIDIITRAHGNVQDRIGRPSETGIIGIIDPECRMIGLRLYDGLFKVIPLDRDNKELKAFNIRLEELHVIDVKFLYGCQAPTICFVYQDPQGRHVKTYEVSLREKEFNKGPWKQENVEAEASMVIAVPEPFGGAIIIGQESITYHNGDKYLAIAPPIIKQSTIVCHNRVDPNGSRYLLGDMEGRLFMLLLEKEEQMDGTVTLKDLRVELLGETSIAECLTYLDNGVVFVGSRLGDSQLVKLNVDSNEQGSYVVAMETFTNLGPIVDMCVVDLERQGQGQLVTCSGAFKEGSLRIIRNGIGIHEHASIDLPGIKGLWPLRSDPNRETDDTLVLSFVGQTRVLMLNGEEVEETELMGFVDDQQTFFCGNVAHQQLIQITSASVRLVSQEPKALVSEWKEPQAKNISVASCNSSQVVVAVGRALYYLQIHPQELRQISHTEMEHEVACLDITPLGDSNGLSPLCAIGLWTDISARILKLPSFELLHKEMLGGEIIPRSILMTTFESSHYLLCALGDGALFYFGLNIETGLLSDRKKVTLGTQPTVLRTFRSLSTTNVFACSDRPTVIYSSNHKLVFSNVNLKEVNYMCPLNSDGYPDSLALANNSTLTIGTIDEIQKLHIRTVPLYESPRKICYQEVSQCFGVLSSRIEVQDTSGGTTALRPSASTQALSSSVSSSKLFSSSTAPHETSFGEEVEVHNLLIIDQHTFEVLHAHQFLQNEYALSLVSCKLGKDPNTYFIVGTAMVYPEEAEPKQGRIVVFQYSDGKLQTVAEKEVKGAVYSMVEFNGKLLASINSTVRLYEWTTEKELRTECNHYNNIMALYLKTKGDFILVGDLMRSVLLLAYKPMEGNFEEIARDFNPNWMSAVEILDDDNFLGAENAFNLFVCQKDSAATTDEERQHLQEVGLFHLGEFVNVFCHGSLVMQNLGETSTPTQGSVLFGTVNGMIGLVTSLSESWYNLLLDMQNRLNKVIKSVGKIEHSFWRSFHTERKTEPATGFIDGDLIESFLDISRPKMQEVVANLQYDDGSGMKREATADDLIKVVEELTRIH
T5 sequence (P48729 whole entry): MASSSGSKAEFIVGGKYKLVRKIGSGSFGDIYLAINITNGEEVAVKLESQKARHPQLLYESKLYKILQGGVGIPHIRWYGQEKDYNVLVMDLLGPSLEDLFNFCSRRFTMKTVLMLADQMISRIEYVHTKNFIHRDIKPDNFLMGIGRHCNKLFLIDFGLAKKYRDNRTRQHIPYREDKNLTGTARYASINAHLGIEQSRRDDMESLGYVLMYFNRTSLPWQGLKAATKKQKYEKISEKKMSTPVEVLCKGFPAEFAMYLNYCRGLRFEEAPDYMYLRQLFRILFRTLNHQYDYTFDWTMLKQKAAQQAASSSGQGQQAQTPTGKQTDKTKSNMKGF
T5 sequence (Q96SW2 whole entry): as the sequence (Q96SW2 whole entry) above
T5 sequence (Q16531 whole entry partner): as the sequence (Q16531 whole entry partner) above
T6 sequence (Q9UKT9 whole entry): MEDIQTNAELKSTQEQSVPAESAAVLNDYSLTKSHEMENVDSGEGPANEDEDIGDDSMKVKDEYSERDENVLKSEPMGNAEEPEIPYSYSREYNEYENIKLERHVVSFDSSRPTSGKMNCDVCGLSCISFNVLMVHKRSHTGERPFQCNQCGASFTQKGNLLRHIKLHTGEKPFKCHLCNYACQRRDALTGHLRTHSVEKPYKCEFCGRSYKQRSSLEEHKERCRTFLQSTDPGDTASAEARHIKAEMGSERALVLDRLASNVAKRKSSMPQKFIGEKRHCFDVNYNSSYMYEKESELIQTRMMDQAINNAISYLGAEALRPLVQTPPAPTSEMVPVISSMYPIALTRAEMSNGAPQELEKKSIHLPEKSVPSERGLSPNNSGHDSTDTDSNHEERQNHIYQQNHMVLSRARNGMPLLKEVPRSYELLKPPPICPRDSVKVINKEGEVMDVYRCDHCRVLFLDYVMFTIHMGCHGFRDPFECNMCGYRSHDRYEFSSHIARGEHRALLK
T6 sequence (Q96SW2 whole entry): as the sequence (Q96SW2 whole entry) above
T6 sequence (Q16531 whole entry partner): as the sequence (Q16531 whole entry partner) above
T1 sequence (Q13422 whole entry): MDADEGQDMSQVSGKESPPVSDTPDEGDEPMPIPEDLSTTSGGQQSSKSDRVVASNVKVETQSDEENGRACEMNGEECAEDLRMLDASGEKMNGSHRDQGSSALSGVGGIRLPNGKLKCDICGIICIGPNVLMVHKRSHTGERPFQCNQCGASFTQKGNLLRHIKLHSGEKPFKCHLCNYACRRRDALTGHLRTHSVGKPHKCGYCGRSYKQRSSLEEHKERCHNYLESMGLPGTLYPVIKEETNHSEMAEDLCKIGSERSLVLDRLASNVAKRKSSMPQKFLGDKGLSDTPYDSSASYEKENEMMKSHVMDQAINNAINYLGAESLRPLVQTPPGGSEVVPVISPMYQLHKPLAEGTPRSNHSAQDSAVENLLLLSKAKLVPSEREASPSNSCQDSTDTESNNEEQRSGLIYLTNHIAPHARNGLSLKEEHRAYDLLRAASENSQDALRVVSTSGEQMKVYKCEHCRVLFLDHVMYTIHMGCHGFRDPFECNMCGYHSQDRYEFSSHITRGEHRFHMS
T1 sequence (Q96SW2 whole entry): as the sequence (Q96SW2 whole entry) above
T1 sequence (Q16531 whole entry partner): as the sequence (Q16531 whole entry partner) above
T3 sequence (Q9UKS7 whole entry): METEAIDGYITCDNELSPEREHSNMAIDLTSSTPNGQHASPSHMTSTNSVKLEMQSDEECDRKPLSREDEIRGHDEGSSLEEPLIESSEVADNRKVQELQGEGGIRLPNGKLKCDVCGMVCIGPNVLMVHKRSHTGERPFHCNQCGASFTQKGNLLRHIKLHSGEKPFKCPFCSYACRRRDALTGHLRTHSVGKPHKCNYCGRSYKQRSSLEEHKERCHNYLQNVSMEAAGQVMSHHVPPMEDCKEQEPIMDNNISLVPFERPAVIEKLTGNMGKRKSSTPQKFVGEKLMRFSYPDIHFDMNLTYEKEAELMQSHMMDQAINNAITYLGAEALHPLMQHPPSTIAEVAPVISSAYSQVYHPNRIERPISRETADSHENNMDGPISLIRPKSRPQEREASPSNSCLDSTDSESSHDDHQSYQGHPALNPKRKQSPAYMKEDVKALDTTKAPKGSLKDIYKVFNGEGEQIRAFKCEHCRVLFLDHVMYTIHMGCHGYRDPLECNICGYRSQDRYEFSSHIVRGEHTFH
T3 sequence (Q96SW2 whole entry): as the sequence (Q96SW2 whole entry) above
T3 sequence (Q16531 whole entry partner): as the sequence (Q16531 whole entry partner) above

Turning to `O=C1CCN(N2C(=O)c3ccc(CN4CCc5sccc5C4)cc3C2=O)C(=O)N1` [GT-05254, 5-((6,7-dihydrothieno[3,2-c]pyridin-5 (4H)-yl)methyl)-2-(2,4-dioxotetrahydropyrimidin-1(2H)-yl)isoindoline-1,3-dione], the “IKZF1 substrate protein remaining %” value at IKZF1 was “B (80%< substrate protein remaining % ≤100%)”. In addition, the “WEE1 substrate protein remaining %” value at WEE1 is “B (80%< substrate protein remaining % ≤100%)”. Further, the “IKZF2 substrate protein remaining %” value on IKZF2 was “B (80%< substrate protein remaining % ≤100%)”. Further, the “GSPT1 substrate protein remaining %” value at GSPT1 is given as “A (0% ≤ substrate protein remaining % ≤80%)”. The “CK1α substrate protein remaining %” value at CK1α is “B (80%< substrate protein remaining % ≤100%)”. Moreover, the “IKZF3 substrate protein remaining %” value at IKZF3 was “B (80%< substrate protein remaining % ≤100%)”.
Turning to `O=C1CCN(N2C(=O)c3ccc(CN4CCC(c5c[nH]c6ncccc56)CC4)cc3C2=O)C(=O)N1` [GT-07582, 5-((4-(1H-pyrrolo[2,3-b]pyridin-3-yl)piperidin-1-yl)methyl)-2-(2,4-dioxotetrahydropyrimidin-1(2H)-yl)isoindoline-1,3-dione], the “IKZF1 substrate protein remaining %” value on IKZF1 is “A (0% ≤ substrate protein remaining % ≤80%)”. The “WEE1 substrate protein remaining %” value on WEE1 is given as “A (0% ≤ substrate protein remaining % ≤80%)”. Further, the “IKZF2 substrate protein remaining %” value at IKZF2 was “A (0% ≤ substrate protein remaining % ≤80%)”. Moreover, the “GSPT1 substrate protein remaining %” value on GSPT1 is recorded as “A (0% ≤ substrate protein remaining % ≤80%)”. Also, on CK1α, the “CK1α substrate protein remaining %” value is given as “B (80%< substrate protein remaining % ≤100%)”. Also, the “IKZF3 substrate protein remaining %” value at IKZF3 is “B (80%< substrate protein remaining % ≤100%)”.
In the case of `O=C1CCN(N2C(=O)c3ccc(CN4CCN(c5ccc(Cl)cc5)CC4)cc3C2=O)C(=O)N1` [GT-06783, 5-((4-(4-chlorophenyl)piperazin-1-yl)methyl)-2-(2,4-dioxotetrahydropyrimidin-1(2H)-yl)isoindoline-1,3-dione], at IKZF1, the “IKZF1 substrate protein remaining %” value was “B (80%< substrate protein remaining % ≤100%)”. At WEE1, the “WEE1 substrate protein remaining %” value was “B (80%< substrate protein remaining % ≤100%)”. In addition, the “IKZF2 substrate protein remaining %” value at IKZF2 is reported as “B (80%< substrate protein remaining % ≤100%)”. At GSPT1, the “GSPT1 substrate protein remaining %” value is recorded as “B (80%< substrate protein remaining % ≤100%)”. On CK1α, the “CK1α substrate protein remaining %” value is “B (80%< substrate protein remaining % ≤100%)”. Besides, the “IKZF3 substrate protein remaining %” value at IKZF3 is recorded as “A (0% ≤ substrate protein remaining % ≤80%)”.
As to `O=C1CCN(N2C(=O)c3ccc(CN4CCN(c5ncnc6ccsc56)CC4)cc3C2=O)C(=O)N1` [GT-08452, 2-(2,4-dioxotetrahydropyrimidin-1(2H)-yl)-5-((4-(thieno[3,2-d]pyrimidin-4-yl)piperazin-1-yl)methyl)isoindoline-1,3-dione], the “IKZF1 substrate protein remaining %” value at IKZF1 is recorded as “A (0% ≤ substrate protein remaining % ≤80%)”. For the same molecule, the “WEE1 substrate protein remaining %” value on WEE1 is recorded as “A (0% ≤ substrate protein remaining % ≤80%)”. Also, the “IKZF2 substrate protein remaining %” value at IKZF2 is on record as “B (80%< substrate protein remaining % ≤100%)”. Further, the “GSPT1 substrate protein remaining %” value at GSPT1 is “B (80%< substrate protein remaining % ≤100%)”. Further, the “CK1α substrate protein remaining %” value at CK1α is “A (0% ≤ substrate protein remaining % ≤80%)”. On IKZF3, the “IKZF3 substrate protein remaining %” value is “A (0% ≤ substrate protein remaining % ≤80%)”.
As for `O=C1CCN(N2C(=O)c3ccc(CN4CCC(c5ncnc6sc(-c7ccccc7)cc56)CC4)cc3C2=O)C(=O)N1` [GT-08108, 2-(2,4-dioxotetrahydropyrimidin-1(2H)-yl)-5-((4-(6-phenylthieno[2,3-d]pyrimidin-4-yl)piperidin-1-yl)methyl)isoindoline-1,3-dione], the “IKZF1 substrate protein remaining %” value on IKZF1 is “A (0% ≤ substrate protein remaining % ≤80%)”. At WEE1, the “WEE1 substrate protein remaining %” value is “A (0% ≤ substrate protein remaining % ≤80%)”. For the same molecule, at IKZF2, the “IKZF2 substrate protein remaining %” value is “A (0% ≤ substrate protein remaining % ≤80%)”. Also, the “GSPT1 substrate protein remaining %” value on GSPT1 is listed as “A (0% ≤ substrate protein remaining % ≤80%)”. The “CK1α substrate protein remaining %” value at CK1α is recorded as “A (0% ≤ substrate protein remaining % ≤80%)”. Also, at IKZF3, the “IKZF3 substrate protein remaining %” value was “A (0% ≤ substrate protein remaining % ≤80%)”.
Consider `O=C1CCN(N2C(=O)c3ccc(CN4CCN(c5noc6ccncc56)CC4)cc3C2=O)C(=O)N1` [GT-07525, 2-(2,4-dioxotetrahydropyrimidin-1(2H)-yl)-5-((4-(isoxazolo[4,5-c]pyridin-3-yl)piperazin-1-yl)methyl)isoindoline-1,3-dione], for which, on IKZF1, the “IKZF1 substrate protein remaining %” value is reported as “B (80%< substrate protein remaining % ≤100%)”. Also, the “WEE1 substrate protein remaining %” value at WEE1 is recorded as “B (80%< substrate protein remaining % ≤100%)”. The “IKZF2 substrate protein remaining %” value on IKZF2 is “B (80%< substrate protein remaining % ≤100%)”. Further, on GSPT1, the “GSPT1 substrate protein remaining %” value was “A (0% ≤ substrate protein remaining % ≤80%)”. Further, the “CK1α substrate protein remaining %” value on CK1α is “A (0% ≤ substrate protein remaining % ≤80%)”. Also, the “IKZF3 substrate protein remaining %” value on IKZF3 is given as “B (80%< substrate protein remaining % ≤100%)”.
For `O=C1CCN(N2Cc3cc(CN4CCC(c5ncnc6sc7c(c56)CCC7)CC4)ccc3C2=O)C(=O)N1` [GT-08113, 1-(5-((4-(6,7-dihydro-5H-cyclopenta[4,5]thieno[2,3-d]pyrimidin-4-yl)piperidin-1-yl)methyl)-1-oxoisoindolin-2-yl)dihydropyrimidine-2,4(1H,3H)-dione], on IKZF1, the “IKZF1 substrate protein remaining %” value is given as “B (80%< substrate protein remaining % ≤100%)”. In addition, the “WEE1 substrate protein remaining %” value at WEE1 is reported as “B (80%< substrate protein remaining % ≤100%)”. Moreover, the “IKZF2 substrate protein remaining %” value at IKZF2 is on record as “B (80%< substrate protein remaining % ≤100%)”. Further, the “GSPT1 substrate protein remaining %” value at GSPT1 is on record as “A (0% ≤ substrate protein remaining % ≤80%)”. Moreover, the “CK1α substrate protein remaining %” value at CK1α was “A (0% ≤ substrate protein remaining % ≤80%)”. Also, the “IKZF3 substrate protein remaining %” value at IKZF3 was “B (80%< substrate protein remaining % ≤100%)”.
As for `O=C1CCN(N2C(=O)c3ccc(CN4CC=C(c5ncnc6scc(-c7ccccc7)c56)CC4)cc3C2=O)C(=O)N1` [GT-08431, 2-(2,4-dioxotetrahydropyrimidin-1(2H)-yl)-5-((4-(5-phenylthieno[2,3-d]pyrimidin-4-yl)-3,6-dihydropyridin-1(2H)-yl)methyl)isoindoline-1,3-dione], the “IKZF1 substrate protein remaining %” value on IKZF1 is “B (80%< substrate protein remaining % ≤100%)”. For the same molecule, the “WEE1 substrate protein remaining %” value at WEE1 is listed as “A (0% ≤ substrate protein remaining % ≤80%)”. In addition, the “IKZF2 substrate protein remaining %” value on IKZF2 is “A (0% ≤ substrate protein remaining % ≤80%)”. In addition, at GSPT1, the “GSPT1 substrate protein remaining %” value was “B (80%< substrate protein remaining % ≤100%)”. The “CK1α substrate protein remaining %” value at CK1α is recorded as “B (80%< substrate protein remaining % ≤100%)”. In addition, the “IKZF3 substrate protein remaining %” value at IKZF3 is “B (80%< substrate protein remaining % ≤100%)”.
As to `O=C1CCN(N2Cc3cc(CN4CCC(c5ccc(Cl)cc5)CC4)ccc3C2=O)C(=O)N1` [GT-06888, 1-(5-((4-(4-chlorophenyl)piperidin-1-yl)methyl)-1-oxoisoindolin-2-yl)dihydropyrimidine-2,4(1H,3H)-dione], the “IKZF1 substrate protein remaining %” value at IKZF1 is given as “B (80%< substrate protein remaining % ≤100%)”. The “WEE1 substrate protein remaining %” value at WEE1 was “A (0% ≤ substrate protein remaining % ≤80%)”. Also, the “IKZF2 substrate protein remaining %” value at IKZF2 is “A (0% ≤ substrate protein remaining % ≤80%)”. At GSPT1, the “GSPT1 substrate protein remaining %” value was “A (0% ≤ substrate protein remaining % ≤80%)”. Moreover, on CK1α, the “CK1α substrate protein remaining %” value is “B (80%< substrate protein remaining % ≤100%)”. Moreover, at IKZF3, the “IKZF3 substrate protein remaining %” value is listed as “B (80%< substrate protein remaining % ≤100%)”.
